Measured values as given in PMC11871066, “Structure-based discovery of hydrocarbon-stapled paxillin peptides that block FAK scaffolding in cancer” (Nature Communications, 2025).
Where two headings read alike, the source gives them in different places. Values belong to the compound of their own block, whether it stands above or below them. Bridge positions count the residues as written; N and C are the ends. Square brackets hold non-standard residues; d marks the D form. Peptide text beside a SMILES is read from it. R8 = C=CCCCCCC[C@@](C)(N)C(=O)O; R5 = C=CCCC[C@@](C)(N)C(=O)O; S5 = C=CCCC[C@](C)(N)C(=O)O

Assays:
[1] = biological target: T1, FAK FAT domain (Homo sapiens, UniProt Q05397); test: SPR binding to immobilized biotinylated FAK FAT
T1 sequence (Q05397 914-1045 limits assumed): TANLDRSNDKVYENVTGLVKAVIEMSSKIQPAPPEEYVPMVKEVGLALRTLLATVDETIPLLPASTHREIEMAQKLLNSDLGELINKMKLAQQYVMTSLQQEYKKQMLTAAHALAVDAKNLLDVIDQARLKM
Experimental: SPR binding studies were performed using biotinylated FAK FAT protein[51]. Briefly, SPR binding assays were performed on a ForteBio Pioneer FE SPR system using SPR running buffer (100 mM Tris-Cl pH 8.0, 200 mM NaCl, and 0.05% Tween-20). […] Desired immobilization levels were determined utilizing the following Eq. 1:1 Rmax=RproteinxMranalyte/MrproteinxVprotein where Rmax is the highest possible response of binding between the analyte and the protein, Rprotein is the change in response by the immobilization of the protein, Mr represents the mass of the analyte or protein, and Vprotein represents the number of binding sites on the protein. A target Rmax of approximately 100 RU was chosen.
All samples were diluted in the SPR buffer to a volume of 200 µl and injected using the OneStep gradient injection system at a flow rate of 150 µl/min. For a bulk standard control, a 3% (w\v) solution of sucrose in SPR buffer was used for injection. […] SPR data analysis utilized Qdat software (ForteBio, version 4.3.2 build 8) for normalization of the baseline prior to injection, channel alignment, and reference channel and blank subtraction.

[2] = biological target: T2, FAK FAT / TAMRA-paxillin LD2 L10D (Homo sapiens, UniProt Q05397); test: Fluorescence polarization competition (FAK-paxillin) assay; format: binding
T2 construct: assay was performed using FAK FAT protein and TAMRA-LD2 L10D peptide
T2 sequence (Q05397 919-1052): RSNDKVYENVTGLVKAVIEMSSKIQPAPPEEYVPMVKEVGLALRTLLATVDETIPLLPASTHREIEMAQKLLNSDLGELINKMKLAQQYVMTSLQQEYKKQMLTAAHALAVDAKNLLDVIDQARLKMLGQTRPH
Experimental: The IC50 was calculated using a four-parameter dose-response inhibition model, with the bottom fit constrained to the lower plateau of the binding curve.

[3] = system: trypsin; test: Trypsin proteolytic resistance assay; conditions: immobilized trypsin-agarose resin
Experimental: Cell permeability of peptide drugs was determined by fluorescence measurement of TAMRA-labeled peptides in 96-well plates and ClarioStar Plus plate reader using BMG ClarioStar MARS software (version 4.20). […] Percent uptake was calculated as background-subtracted fluorescence absorbed by cells/fluorescence of peptide in media-only wells, then made relative to TAMRA-Alkyne. Three biological replicates (n = 3) were performed per cell line per treatment group. Peptide proteolysis was measured using immobilized Trypsin-agarose resin (Thermo Fisher) and quantification by LC-MS. […] In vivo pharmacokinetics were performed by the UACC Analytical Chemistry Shared Resource. […] The mice were fed NIH-31 irradiated pellets (Tekland Premier, Madison, Wisconsin), and reverse osmosis water was freely available. […] The average plasma concentration versus time data were analyzed using PKSolver (version 2.0) by a noncompartmental approach.

[4] = Plasma stability; conditions: mouse plasma
[5] = one-site kinetic fit, mean ± SD of n = 2-5 biological replicates, Tris pH 8.0, read-out: SPR KD

Structure (SMILES): CC(=O)N[C@@H](CC(N)=O)C(=O)N[C@@H](CC(C)C)C(=O)N[C@@H](CO)C(=O)N[C@@H](CCC(=O)O)C(=O)N[C@@H](CC(C)C)C(=O)N[C@@H](CC(=O)O)C(=O)N[C@@H](CCCNC(=N)N)C(=O)N[C@@H](CC(C)C)C(=O)N[C@]1(C)CCCC=CCCC[C@@](C)(C(=O)N[C@@H](CC(N)=O)C(N)=O)NC(=O)[C@H](CCC(=O)O)NC(=O)[C@H](CC(C)C)NC1=O [compound 1921] (Ac-NLSELDRL[R5]LE[S5]N-NH2; staple 9-12)
- Kd ([1]; Rep1, read-out: SPR (KD)): > 200 µM
- Kd ([1]; Rep2, read-out: SPR (KD)): > 200 µM
- Kd ([1]; Rep3, read-out: SPR (KD)): > 200 µM
- Kd [1, 5]: > 200 µM

Structure (SMILES): CC(=O)N[C@]1(C)CCCCCCC=CCCC[C@@](C)(C(N)=O)NC(=O)[C@H](CC(C)C)NC(=O)[C@H](CC(C)C)NC(=O)[C@H](CCCNC(=N)N)NC(=O)[C@H](CC(=O)O)NC(=O)[C@H](CC(C)C)NC(=O)[C@H](CCC(=O)O)NC1=O [compound 2011] (Ac-[R8]ELDRLL[S5]-NH2; staple 1-8)
- Kd ([1]; Rep1, read-out: SPR (KD)): > 200 µM
- Kd ([1]; Rep2, read-out: SPR (KD)): > 200 µM
- Kd ([1]; Rep3, read-out: SPR (KD)): > 200 µM
- Kd ([1]; read-out: SPR KD, pH 8): > 200 µM
- Ki [2]: > 333 µM
- Ki ([2]; Rep2, read-out: FP (Ki) data): > 333 µM

Structure (SMILES): CC(=O)N[C@@H](CC(N)=O)C(=O)N[C@@H](CC(C)C)C(=O)N[C@]1(C)CCCCCCC=CCCC[C@@](C)(C(=O)N[C@@H](CCC(=O)O)C(=O)N[C@@H](CC(C)C)C(=O)N[C@@H](CC(N)=O)C(N)=O)NC(=O)[C@H](CC(C)C)NC(=O)[C@H](CC(C)C)NC(=O)[C@H](CCCNC(=N)N)NC(=O)[C@H](CC(=O)O)NC(=O)[C@H](CC(C)C)NC(=O)[C@H](CCC(=O)O)NC1=O [compound 1907]
- half-life at 100 µM [3]: 28.4 h
- remaining at 0.25 h, 100 µM [3]: 80%
- remaining at 0.5 h, 100 µM [3]: 73%
- remaining at 1 h, 100 µM [3]: 72%
- remaining at 2 h, 100 µM [3]: 73%
- remaining at 3 h, 100 µM [3]: 62%
- remaining at 4 h, 100 µM [3]: 58%
- remaining at 8 h, 100 µM [3]: 56%
- remaining at 24 h, 100 µM [3]: 43%
- remaining at 48 h, 100 µM [3]: 31%

Structure (SMILES): CC(=O)N[C@@H](CC(N)=O)C(=O)N[C@@H](CC(C)C)C(=O)N[C@@H](CO)C(=O)N[C@@H](CCC(=O)O)C(=O)N[C@@H](CC(C)C)C(=O)N[C@@H](CC(=O)O)C(=O)N[C@@H](CCCNC(=N)N)C(=O)N[C@@]1(C)CCCC=CCCC[C@@](C)(C(=O)N[C@@H](CC(N)=O)C(N)=O)NC(=O)[C@H](CCC(=O)O)NC(=O)[C@H](CC(C)C)NC(=O)[C@H](CC(C)C)NC1=O [compound 2015] (Ac-NLSELDR[S5]LLE[S5]N-NH2; staple 8-12)
- Kd [1]: 30.6 µM

Structure (SMILES): CC(=O)N[C@@H](CC(N)=O)C(=O)N[C@@H](CC(C)C)C(=O)N[C@@H](CO)C(=O)N[C@@H](CCC(=O)O)C(=O)N[C@]1(C)CCCCCCC=CCCC[C@@](C)(C(=O)N[C@@H](CC(N)=O)C(N)=O)NC(=O)[C@H](CCC(=O)O)NC(=O)[C@H](CC(C)C)NC(=O)[C@H](CC(C)C)NC(=O)[C@H](CC(C)C)NC(=O)[C@H](CCCNC(=N)N)NC(=O)[C@H](CC(=O)O)NC1=O [compound 1914] (Ac-NLSE[R8]DRLLLE[S5]N-NH2; staple 5-12)
- Kd [1, 5]: 120 µM
- Ki ([2]; Rep1, read-out: FP (Ki) data): > 1250 µM
- Ki ([2]; Rep2, read-out: FP (Ki) data): > 1250 µM
- Ki ([2]; Rep3, read-out: FP (Ki) data): > 1250 µM

Structure (SMILES): CC(=O)N[C@@H](CC(N)=O)C(=O)N[C@@H](CC(C)C)C(=O)N[C@]1(C)CCCCCCC=CCCC[C@@](C)(C(=O)N[C@@H](CCC(N)=O)C(=O)N[C@@H](CC(C)C)C(=O)N[C@@H](CC(N)=O)C(N)=O)NC(=O)[C@H](CC(C)C)NC(=O)[C@H](CC(C)C)NC(=O)[C@H](CCCNC(=N)N)NC(=O)[C@H](CC(=O)O)NC(=O)[C@H](CC(C)C)NC(=O)[C@H](CCC(N)=O)NC1=O [compound 1910] (Ac-NL[R8]QLDRLL[S5]QLN-NH2; staple 3-10)
- Kd [1, 5]: 22.6 µM

Structure (SMILES): CC(=O)N[C@@H](CC(N)=O)C(=O)N[C@@H](CC(C)C)C(=O)N[C@@H](CO)C(=O)N[C@@H](CCC(=O)O)C(=O)N[C@@]1(C)CCCC=CCCC[C@@](C)(C(=O)N[C@@H](CC(C)C)C(=O)N[C@@H](CCC(=O)O)C(=O)N[C@@H](CC(C)C)C(=O)N[C@@H](CC(N)=O)C(N)=O)NC(=O)[C@H](CC(C)C)NC(=O)[C@H](CCCNC(=N)N)NC(=O)[C@H](CC(=O)O)NC1=O [compound 1919] (Ac-NLSE[S5]DRL[S5]LELN-NH2; staple 5-9)
- Kd [1, 5]: 80.6 µM

Structure (SMILES): CC(=O)N[C@@H](CO)C(=O)N[C@@H](CC(C)C)C(=O)NCC(=O)N[C@@H](CO)C(=O)N[C@@H](CC(N)=O)C(=O)N[C@@H](CC(C)C)C(=O)N[C@]1(C)CCCCCCC=CCCC[C@@](C)(C(=O)N[C@@H](CCC(=O)O)C(=O)N[C@@H](CC(C)C)C(=O)N[C@@H](CC(N)=O)C(=O)N[C@@H](C)C(=O)N[C@H](C(=O)N[C@@H](CCC(N)=O)C(=O)N[C@@H](Cc2c[nH]cn2)C(N)=O)C(C)C)NC(=O)[C@H](CC(C)C)NC(=O)[C@H](CC(C)C)NC(=O)[C@H](CCCNC(=N)N)NC(=O)[C@H](CC(=O)O)NC(=O)[C@H](CC(C)C)NC(=O)[C@H](CCC(=O)O)NC1=O [compound 1920] (Ac-SLGSNL[R8]ELDRLL[S5]ELNAVQH-NH2; staple 7-14)
- Kd ([1]; two-site model, site 1, mean ± SD, read-out: SPR KD1): 0.9 ± 0.5 µM
- Kd ([1]; two-site model, site 2, mean ± SD, read-out: SPR KD2): 9.8 ± 6.9 µM

Continued, in another order:

- Kd ([1]; Rep1, read-out: SPR (KD)): > 200 µM
- Kd ([1]; Rep2, read-out: SPR (KD)): > 200 µM
- Kd ([1]; Rep3, read-out: SPR (KD)): > 200 µM
- Kd ([1]; Rep4, read-out: SPR (KD)): > 200 µM
- SPR KD ([1]; one-site kinetic fit, mean ± SD of n = 2-5 biological replicates, Tris pH 8.0): did not bind FAT
- Kd [1, 5]: > 200 µM
Structure (SMILES): CC(=O)N[C@@H](CC(N)=O)C(=O)N[C@@H](CC(C)C)C(=O)N[C@]1(C)CCCCCCC=CCCC[C@@](C)(C(=O)N[C@@H](CCC(=O)O)C(=O)N[C@@H](CCC(=O)O)C(=O)N[C@@H](CC(N)=O)C(N)=O)NC(=O)[C@H](CC(C)C)NC(=O)[C@H](CC(C)C)NC(=O)[C@H](CCCNC(=N)N)NC(=O)[C@H](CC(=O)O)NC(=O)[C@H](CCC(=O)O)NC(=O)[C@H](CCC(=O)O)NC1=O [compound 2014] (Ac-NL[R8]EEDRLL[S5]EEN-NH2; staple 3-10)
- FP Ki ([2]; 25 µM FAT, 0.1 µM probe, 3 h, mean ± SD, n = 3): did not bind FAT
- Ki ([2]; Rep1, read-out: FP (Ki) data): > 1250 µM

- Kd [1, 5]: 3.4 µM
Structure (SMILES): CC(=O)N[C@@H](CC(N)=O)C(=O)N[C@@H](CC(C)C)C(=O)N[C@]1(C)CCCCCCC=CCCC[C@@](C)(C(=O)N[C@@H](CCC(=O)O)C(=O)N[C@@H](CC(C)C)C(=O)N[C@@H](CC(N)=O)C(N)=O)NC(=O)[C@H](CC(C)C)NC(=O)[C@H](CC(C)C)NC(=O)[C@H](CCCNC(=N)N)NC(=O)[C@H](CC(=O)O)NC(=O)[C@H](CC(C)C)NC(=O)[C@H](C)NC1=O [compound 2009]

- Kd [1, 5]: 60.6 µM
Structure (SMILES): CC(=O)N[C@@H](CC(N)=O)C(=O)N[C@@H](CC(C)C)C(=O)N[C@]1(C)CCCCCCC=CCCC[C@@](C)(C(=O)N[C@@H](CCC(=O)O)C(=O)N[C@@H](CC(C)C)C(=O)N[C@@H](CC(N)=O)C(N)=O)NC(=O)[C@H](Cc2c[nH]c3ccccc23)NC(=O)[C@H](CC(C)C)NC(=O)[C@H](CCCNC(=N)N)NC(=O)[C@H](CC(=O)O)NC(=O)[C@H](CC(C)C)NC(=O)[C@H](CCC(=O)O)NC1=O [compound 2007]

- Kd [1, 5]: 27.9 µM
Structure (SMILES): CC(=O)N[C@@H](CC(N)=O)C(=O)N[C@]1(C)CCCCCCC=CCCC[C@@](C)(C(=O)N[C@@H](CC(C)C)C(=O)N[C@@H](CCC(=O)O)C(=O)N[C@@H](CC(C)C)C(=O)N[C@@H](CC(N)=O)C(N)=O)NC(=O)[C@H](CC(C)C)NC(=O)[C@H](CCCNC(=N)N)NC(=O)[C@H](CC(=O)O)NC(=O)[C@H](CC(C)C)NC(=O)[C@H](CCC(=O)O)NC(=O)[C@H](CO)NC1=O [compound 2017] (Ac-N[R8]SELDRL[S5]LELN-NH2; staple 2-9)

- % remaining in plasma ([4]; 0 min, Rep1): 105%
- % remaining in plasma ([4]; 0 min, Rep2): 100%
- % remaining in plasma ([4]; 0 min, Rep3): 95%
- % remaining in plasma ([4]; 15 min, Rep1): 85%
- % remaining in plasma ([4]; 15 min, Rep2): 78%
- % remaining in plasma ([4]; 15 min, Rep3): 86%
- % remaining in plasma ([4]; 30 min, Rep1): 73%
- % remaining in plasma ([4]; 30 min, Rep2): 70%
- % remaining in plasma ([4]; 30 min, Rep3): 68%
- % remaining in plasma ([4]; 60 min, Rep1): 58%
- % remaining in plasma ([4]; 60 min, Rep2): 52%
- % remaining in plasma ([4]; 60 min, Rep3): 50%
- % remaining in plasma ([4]; 90 min, Rep1): 30%
- % remaining in plasma ([4]; 90 min, Rep2): 42%
- % remaining in plasma ([4]; 90 min, Rep3): 36%
- % remaining in plasma ([4]; 120 min, Rep1): 29%
- % remaining in plasma ([4]; 120 min, Rep2): 31%
- % remaining in plasma ([4]; 120 min, Rep3): 27%
- plasma stability t1/2 ([4]; n = 3): 1.1 h
Structure (SMILES): CC(C)[N+](C)(CCOC(=O)C1c2ccccc2Oc2ccccc21)C(C)C [propantheline bromide]
